Test results: US9187467B2, “2-phenyl benzothiazole linked imidazole compounds as potential anticancer agents and process for the preparation thereof” (Council of Scientific and Industrial Research, priority 2012, dated 2015)
Read-outs that look alike come from different tables or passages of the source.

Tests used:
NCI-H226 = assay: SRB anticancer assay, non-small lung; type: cell-based, human; conditions: Homo sapiens, NCI-H226, 48 h
UO-31 = assay: SRB anticancer assay, renal; type: cell-based, human; parameters: Log10GI50: unit not given here
NCI-H23 = assay: SRB anticancer assay, non-small lung; type: cell-based, human
MALME-3M = assay: SRB anticancer assay, melanoma; type: cell-based, human; parameters: Log10GI50: unit not given here
LOX IMVI = assay: SRB anticancer assay, melanoma; type: cell-based, human; parameters: Log10GI50: unit not given here
SF-268 = assay: SRB anticancer assay, CNS; type: cell-based, human; parameters: Log10GI50: unit not given here
SK-MEL-5 = assay: SRB anticancer assay, melanoma; type: cell-based, human; conditions: Homo sapiens, SK-MEL-5, 48 h
TK-10 = assay: SRB anticancer assay, renal; type: cell-based, human; conditions: Homo sapiens, TK-10, 48 h
DU-145 = assay: SRB anticancer assay, prostate; type: cell-based, human; parameters: Log10GI50: unit not given here
A498 = assay: SRB anticancer assay, renal; type: cell-based, human; parameters: Log10GI50: unit not given here
MCF7 = assay: SRB anticancer assay, breast; type: cell-based, human; conditions: Homo sapiens, MCF7, 48 h
OVCAR-4 = assay: SRB anticancer assay, ovarian; type: cell-based, human; conditions: Homo sapiens, OVCAR-4, 48 h
SF-295 = assay: SRB anticancer assay, CNS; type: cell-based, human; parameters: Log10GI50: unit not given here
HCT-116 = assay: SRB anticancer assay, colon; type: cell-based, human; conditions: Homo sapiens, HCT-116, 48 h
T-47D = assay: SRB anticancer assay, breast; type: cell-based; conditions: Homo sapiens, T47D, 48 h
OVCAR-3 = assay: SRB anticancer assay, ovarian; type: cell-based, human; parameters: Log10GI50: unit not given here
MDA-MB-231/ATCC = assay: SRB anticancer assay, breast; type: cell-based, human; parameters: Log10GI50: unit not given here; conditions: for GI50: Homo sapiens, MDA-MB-231, 48 h, 48 h, read-out: GI50
A549/ATCC = assay: SRB anticancer assay, non-small lung; type: cell-based, human; parameters: Log10GI50: unit not given here
Breast cancer cell lines = assay: SRB anticancer assay, panel result; type: cell-based, human
In short: (§1)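 Each compound is profiled per cell line over five or more concentrations at tenfold spacing. Exposure lasts 48 h without washout, and the sulforhodamine B method quantifies cellular protein as a growth measure.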

[1] = test system: Non-small cell lung cancer cell lines; assay: SRB anticancer assay, panel result; type: cell-based, human
In short: as §1

[2] = test system: Ovarian cancer cell lines; assay: SRB anticancer assay, panel result; type: cell-based, human
In short: as §1

Colon cancer cell lines = assay: SRB anticancer assay, panel result; type: cell-based, human
In short: as §1

CNS cancer cell lines = assay: SRB anticancer assay, panel result; type: cell-based, human
In short: as §1

[3] = test system: Prostate cancer cell lines; assay: SRB anticancer assay, panel result; type: cell-based, human
In short: as §1

Renal cancer cell lines = assay: SRB anticancer assay, panel result; type: cell-based, human
In short: as §1

[4] = test system: Leukemia cancer cell lines; assay: SRB anticancer assay, panel result; type: cell-based, human
In short: as §1

[5] = test system: Melanoma cancer cell lines; assay: SRB anticancer assay, panel result; type: cell-based, human
In short: as §1

COc1ccc(-c2cncn2-c2ccc(-c3nc4cc(OC)c(OC)c(OC)c4s3)cc2)cc1N [Compound 7j, 2-Methoxy-5-(1-(4-(5,6,7-trimethoxybenzo[d]thiazol-2-yl)phenyl)-1H-imidazol-5-yl)benzeneamine] showed a GI50 (NCI-H226) of 6.7 µM, a GI50 (UO-31; Homo sapiens, UO-31, 48 h) of 1.99 µM and a Log10GI50 (UO-31; UO-31, present compounds) of −5.70. The GI50 (NCI-H23; Homo sapiens, NCI-H23, 48 h) was 4.76 µM, the Log10GI50 (NCI-H23; NCI-H23, present compounds) was −5.32 log10(M) and the GI50 (MALME-3M; Homo sapiens, Malme-3M, 48 h) was 2.48 µM. It also gave a Log10GI50 (MALME-3M; MALME-3M, present compounds) of −5.61, a GI50 (LOX IMVI; Homo sapiens, 48 h) of 4.75 µM and a Log10GI50 (LOX IMVI; present compounds) of −5.32. The GI50 (SF-268; Homo sapiens, SF-268, 48 h) was 47 µM, the Log10GI50 (SF-268; SF-268, present compounds) was −4.33 and the GI50 (SK-MEL-5) was 1.73 µM. The GI50 (TK-10) was 4.16 µM, the Log10GI50 (DU-145; DU-145, present compounds) was −5.20 and the GI50 (DU-145; Homo sapiens, DU-145, 48 h) was 6.38 µM. For the same compound, the Log10GI50 (A498; A498, present compounds) was −5.32, the GI50 (A498; Homo sapiens, A498, 48 h) was 4.83 µM and the GI50 (MCF7) was 4.07 µM. For the same compound, the GI50 (OVCAR-4) was 6.29 µM, the GI50 (SF-295; Homo sapiens, SF-295, 48 h) was 4.44 µM and the Log10GI50 (SF-295; SF-295, present compounds) was −5.35. The GI50 (HCT-116) was 3.78 µM, the GI50 (T-47D) was 8.6 µM and the GI50 (OVCAR-3; Homo sapiens, OVCAR-3, 48 h) was 5.18 µM. For the same compound, the Log10GI50 (OVCAR-3; OVCAR-3, present compounds) was −5.29, the GI50 (MDA-MB-231/ATCC; MDA-MB-231/ATCC (row head MDA-MB-)) was over 100 µM and the GI50 (MDA-MB-231/ATCC; row head printed 231/ATCC (second line of MDA-MB-231/ATCC)) was 28.3 µM. The Log10GI50 (MDA-MB-231/ATCC; MDA-MB-231/ATCC, present compounds) was over −4.0, the GI50 (A549/ATCC; Homo sapiens, 48 h) was 5.77 µM and the Log10GI50 (A549/ATCC; present compounds) was −5.24. The “mean graph midpoint value (MG_MID) of Log10 GI50” value (Breast cancer cell lines; Breast panel) was −4.96 mol/L, the “mean graph midpoint value (MG_MID) of log10 TGI” value (Breast cancer cell lines; Breast panel, total inhibition of net cell growth) was over −4.0 and the CC50 (Breast cancer cell lines; Homo sapiens, Breast panel, 50% net cell death, read-out: mean graph midpoint value (MG_MID) of Log10 LC50 (converted)) was over 100 µM. For the same compound, the GI50 (Breast cancer cell lines; Homo sapiens, six breast cancer cell lines, exposure at least 48 h, read-out: GI50, range over the panel) was 3.02 to 28.3 µM, the LC50 ([1]; Homo sapiens, Non-small cell lung panel, 50% net cell death, read-out: mean graph midpoint value (MG_MID) of Log10 LC50 (converted)) was over 100 µM and the GI50 ([1]; Homo sapiens, nine Non-small cell lung cancer cell lines, exposure at least 48 h, read-out: GI50, range over the panel) was 3.37 to 25.7 µM. For the same compound, the “mean graph midpoint value (MG_MID) of Log10 GI50” value ([1]; Non-small cell lung panel) was −5.18 log10(M), the “mean graph midpoint value (MG_MID) of log10 TGI” value ([1]; Non-small cell lung panel, total inhibition of net cell growth) was −4.11 and the LC50 ([2]; Homo sapiens, Ovarian panel, 50% net cell death, read-out: mean graph midpoint value (MG_MID) of Log10 LC50 (converted)) was over 100 µM. The GI50 ([2]; Homo sapiens, seven ovarian cancer cell lines, exposure at least 48 h, read-out: GI50, range over the panel) was 3.12 to 6.29 µM, the “mean graph midpoint value (MG_MID) of Log10 GI50” value ([2]; Ovarian panel) was −4.93 mol/L and the “mean graph midpoint value (MG_MID) of log10 TGI” value ([2]; Ovarian panel, total inhibition of net cell growth) was over −4.0. For the same compound, the “mean graph midpoint value (MG_MID) of Log10 GI50” value (Colon cancer cell lines; Colon panel) was −5.40 log10(mol/L), the “mean graph midpoint value (MG_MID) of log10 TGI” value (Colon cancer cell lines; Colon panel, total inhibition of net cell growth) was −4.11 and the LC50 (Colon cancer cell lines; Homo sapiens, Colon panel, 50% net cell death, read-out: mean graph midpoint value (MG_MID) of Log10 LC50 (converted)) was over 100 µM. For the same compound, the GI50 (Colon cancer cell lines; Homo sapiens, seven colon cancer cell lines, exposure at least 48 h, read-out: GI50, range over the panel) was 2.94 to 6.21 µM, the “mean graph midpoint value (MG_MID) of Log10 GI50” value (CNS cancer cell lines; CNS panel) was −4.53 mol/L and the “mean graph midpoint value (MG_MID) of log10 TGI” value (CNS cancer cell lines; CNS panel, total inhibition of net cell growth) was over −4.0. The CC50 (CNS cancer cell lines; Homo sapiens, CNS panel, 50% net cell death, read-out: mean graph midpoint value (MG_MID) of Log10 LC50 (converted)) was over 100 µM, the GI50 (CNS cancer cell lines; Homo sapiens, six CNS cancer cell lines, exposure at least 48 h, read-out: GI50, range over the panel) was 4.44 to 52.3 µM and the LC50 ([3]; Homo sapiens, Prostate panel, 50% net cell death, read-out: mean graph midpoint value (MG_MID) of Log10 LC50 (converted)) was over 100 µM. For the same compound, the GI50 ([3]; Homo sapiens, two prostate cancer cell lines (PC-3, DU-145), exposure at least 48 h, read-out: GI50, range over the panel) was 2.59 to 6.38 µM, the “mean graph midpoint value (MG_MID) of Log10 GI50” value ([3]; Prostate panel) was −5.39 mol/L and the “mean graph midpoint value (MG_MID) of log10 TGI” value ([3]; Prostate panel, total inhibition of net cell growth) was over −4.0. For the same compound, the CC50 (Renal cancer cell lines; Homo sapiens, Renal panel, 50% net cell death, read-out: mean graph midpoint value (MG_MID) of Log10 LC50 (converted)) was over 100 µM, the GI50 (Renal cancer cell lines; Homo sapiens, eight renal cancer cell lines, exposure at least 48 h, read-out: GI50, range over the panel) was 1.99 to 9.44 µM and the “mean graph midpoint value (MG_MID) of Log10 GI50” value (Renal cancer cell lines; Renal panel) was −5.31 log10(mol/L). For the same compound, the “mean graph midpoint value (MG_MID) of log10 TGI” value (Renal cancer cell lines; Renal panel, total inhibition of net cell growth) was −4.14, the LC50 ([4]; Homo sapiens, Leukemia panel, 50% net cell death, read-out: mean graph midpoint value (MG_MID) of Log10 LC50 (converted)) was over 100 µM and the GI50 ([4]; Homo sapiens, six leukemia cancer cell lines, exposure at least 48 h, read-out: GI50, range over the panel) was 2.2 to 4 µM. The “mean graph midpoint value (MG_MID) of Log10 GI50” value ([4]; Leukemia panel) was −5.49 log10(mol/L), the “mean graph midpoint value (MG_MID) of log10 TGI” value ([4]; Leukemia panel, total inhibition of net cell growth) was −4.20 and the LC50 ([5]; Homo sapiens, Melanoma panel, 50% net cell death, read-out: mean graph midpoint value (MG_MID) of Log10 LC50 (converted)) was 81.3 µM. For the same compound, the GI50 ([5]; Homo sapiens, nine melanoma cancer cell lines, exposure at least 48 h, read-out: GI50, range over the panel) was 1.73 to 13.7 µM, the “mean graph midpoint value (MG_MID) of Log10 GI50” value ([5]; Melanoma panel) was −5.17 log10(mol/L) and the “mean graph midpoint value (MG_MID) of log10 TGI” value ([5]; Melanoma panel, total inhibition of net cell growth) was −4.26.
